Results: patent publication US7098334B2 (Industrial Research Limited, priority 2002, dated 2006)
Counter-ions that a name gives are not always drawn. Like-named read-outs stand apart in the source and are kept apart here.

What was measured:
human MTAP = molecular target: T1, human MTAP (Homo sapiens, UniProt Q13126); assay: Enzyme inhibition assay, MTAP (slow-onset inhibition constants); type: biochemical; conditions: for Ki: MTAP
T1 construct: inferred from pQE32 vector and Ni-NTA purification) (N); made in house; host or cells: E. coli
T1 sequence (Q13126 1-283): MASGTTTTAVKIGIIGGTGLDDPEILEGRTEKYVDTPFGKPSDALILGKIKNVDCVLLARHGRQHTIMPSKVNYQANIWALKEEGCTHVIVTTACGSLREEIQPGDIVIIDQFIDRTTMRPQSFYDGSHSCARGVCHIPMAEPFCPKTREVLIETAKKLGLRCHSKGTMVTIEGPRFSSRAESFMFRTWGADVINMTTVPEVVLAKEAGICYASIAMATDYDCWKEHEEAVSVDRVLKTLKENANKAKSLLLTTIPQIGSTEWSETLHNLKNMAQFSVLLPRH
Method: (§1) Ki as shown in Tables 1 and 2 is the initial inhibition constant formed by the enzyme-inhibitor complex, and Ki* is the equilibrium dissociation constant for inhibition that is observed following a period of slow-onset, tight binding inhibition. Ki* is the biologically effective constant.
(§2) Enzyme assays were conducted to assess the effectiveness of selected compounds of the invention as inhibitors of MTAP and MTAN.
Enzymes.—The human MTAP protein was cloned into pQE32 expression vector and transformed into E. coli. Induction cultures containing 1 L (25 mg/L) and 50 μg/mL ampicillin were inoculated with 1 mL overnight grown starter-culture and incubated at 37° C. When the cultures reached an OD of ≈0.6 they were induced with 1.5 mM IPTG for 6 to 8 hours. Cells were harvested by centrifugation at 5000 rpm for 30 min, and subsequently resuspended in a buffer (20 mM imidazole, 300 mM NaCl, 0.2 mM phenylmethylsulfonyl fluoride (PMSF), 100 mM Tris, pH 8.0) containing a small amount of lysozyme to weaken the cell membrane. Cells were lysed with a French press. The insoluble material was removed by high-speed centrifugation. The cell extract was further clarified with 35% ammonium sulfate precipitation followed by high-speed centrifugation. The clarified cell extract was then applied to a 5 mL Ni-NTA column that had previously been equilibrated with the binding buffer. Further chromatographic steps were carried out by FPLC. The column was washed with 10 volumes of 50 mM imidazole, 300 mM NaCl, and 100 mM Tris, pH 8.0, and the protein was eluted with a buffer containing a 50–250 mM gradient of imidazole, 300 mM NaCl, 1 M Tris, pH 8.0. The purity of the protein was verified by running polyacrylamide gel followed by Coomassie staining. The protein was subsequently dialyzed in 50 mM NaCl, 2 mM dithiothreitol (DTT) and 50 mM Tris, pH 7.4, and was concentrated to 10 mg/mL. The purified protein was stored at −80° C. in 100 μL to 150 μL aliquots.
(§3) Inhibitors.—Inhibitor concentrations were determined by the UV absorbance spectrum using the published millimolar extinction coefficients for 9-dazadenine of 8.5 at 275 nm at pH 7.0.
(§4) Assays.—The direct spectrophotometric assay for the conversion of MTA into adenine was measured as the decrease in absorbance at 274 nm. At 274 nm, Δε between MTA and adenine is at a maximum and produces a spectral change of 1.6 absorbance units/cm/mM (DeWolf, W. E. Jr., Fullin, F. A., and Schramm, V. L. (1979) J. Biol. Chem. 254, 10868–10875)
(§5) This concentration corresponds to an OD of 0.7–1.1 at 274 nM. The formation of product was monitored as a decrease in absorbance at 274 nm. Conditions for Ki* determination used high concentrations of substrate. Two controls, one having no inhibitor and the other no enzyme were included in the experiment. The Ki values MTAP for the various compounds were calculated by fitting in the ratio of initial rates in the presence of inhibitor to without any inhibitor versus the inhibitor concentration, for the known Km and substrate concentration into the following expression.
(§6) Where Vo′ is the rate in the presence of inhibitor • Vo rate in the absence of inhibitor • [I] inhibitor concentration • And [S] is the substrate concentration
(§7) And the Ki* was calculated by fitting to the following expression
(§8) Where Vs′ is the steady-state rate following attainment of equilibrium in the presence inhibitor, and Vs is the steady-state rate in the control having no inhibitor. Both these equations are valid for competitive type inhibition.

MTAN = MTAN (Escherichia coli, UniProt P0AF12); assay: Enzyme inhibition assay, MTAN (slow-onset inhibition constants); type: biochemical; conditions: for Ki: MTAN
Method: as §1, §2, §3, §4
as §5, with “Slow-Onset Inhibition and Inhibition Constants.—The kinetics for slow onset inhibition and the Ki measurement was carried out by adding a known concentration of enzyme (1–5 nM) to a reaction mixture containing a substrate concentration of 200 μM. This” for “This”
as §6, §7, §8

[1] = equilibrium dissociation constant after slow-onset, tight binding inhibition, read-out: Ki*
[2] = initial inhibition constant, read-out: Ki
[3] = Ki*, equilibrium dissociation constant after slow-onset, tight binding inhibition
[4] = Ki, initial inhibition constant

| inhibition of MTAP (in words) (human MTAP) | SMILES | Ki (human MTAP; [1]) [nM] | Ki (human MTAP; [2]) [nM] | Ki (MTAN; [1]) [nM] | Ki (MTAN; [2]) [nM] | Ki (MTAN; [3]) [nM] | Ki (MTAN; [4]) [nM] | inhibition of MTAN (in words) (MTAN) |
| --- | --- | --- | --- | --- | --- | --- | --- | --- |
| – | Nc1ncnc2c([C@@H]3N[C@H](CSc4ccccc4)[C@H](O)C3O)c[nH]c12 (stereo partly shown) | 0.082 ± 0.009 | 0.89 ± 0.12 | 0.032 ± 0.002 | 0.046 ± 0.003 | – | – | – |
| – | Nc1ncnc2c([C@@H]3N[C@H](CSc4cccc(Cl)c4)[C@H](O)C3O)c[nH]c12 (stereo partly drawn) [5′-(m-Chloro-Phenyl-thio)-ImmA, (1S)-1-(9-Deazaadenin-9-yl)-5-(3-chlorophenyl)thio-1,4-dideoxy-1,4-imino-D-ribitol] | – | 4 ± 0.4 | – | – | 0.02 ± 0.002 | 0.044 ± 0.004 | – |
| – | Cc1cccc(SC[C@H]2N[C@@H](c3c[nH]c4c(N)ncnc34)C(O)[C@H]2O)c1 (stereo partly shown) [5′-(m-tolylthio)-ImmA] | 0.146 ± 0.048 | 0.602 ± 0.032 | – | – | 0.009 ± 0.001 | 0.015 ± 0.0006 | – |
| – | Nc1ncnc2c([C@@H]3N[C@H](CSc4ccc(Cl)cc4)[C@H](O)C3O)c[nH]c12 (stereo partly drawn) [5′-(p-Chloro-Phenyl-thio)-ImmA, (1S)-1-(9-Deazaadenin-9-yl)-5-(4-chlorophenyl)thio-1,4-dideoxy-1,4-imino-D-ribitol] | 0.09 ± 0.02 | 0.334 ± 0.036 | – | – | 0.006 | 0.006 ± 0.0003 | – |
| – | Nc1ncnc2c([C@@H]3N[C@H](CSc4ccc(F)cc4)[C@H](O)C3O)c[nH]c12 (stereo partly shown) [5′-(p-Fluoro-phenyl-thio)-ImmA] | – | 3 ± 0.2 | – | – | 0.02 ± 0.004 | 0.082 ± 0.007 | – |
| – | Cc1ccc(SC[C@H]2N[C@@H](c3c[nH]c4c(N)ncnc34)C(O)[C@H]2O)cc1 (stereo partly shown) [5′-(p-tolylthio)-ImmA] | 0.252 ± 0.023 | 1.6 ± 0.2 | – | – | 0.008 ± 0.001 | 0.018 ± 0.001 | – |
| – | Nc1ncnc2c([C@@H]3N[C@H](CSCc4ccccc4)[C@H](O)C3O)c[nH]c12 (stereo partly drawn) [5′-Benzylthio-ImmA, (1S)-1-(9-Deazaadenin-9-yl)-5-benzylthio-1,4-dideoxy-1,4-imino-D-ribitol] | – | 12 ± 1 | – | – | 0.012 ± 0.001 | 0.038 ± 0.003 | – |
| – | CCSC[C@H]1N[C@@H](c2c[nH]c3c(N)ncnc23)C(O)[C@H]1O (stereo partly shown) [5′-Ethylthio-ImmA] | 0.26 ± 0.015 | 18 ± 2 | – | – | 0.027 ± 0.0003 | 0.073 ± 0.011 | – |
| – | Nc1ncnc2c([C@@H]3N[C@H](CSCCF)[C@H](O)C3O)c[nH]c12 (stereo partly shown) [5′-Fluoroethylthio-ImmA] | 1.5 ± 0.17 | 7 ± 0.5 | – | – | 0.03 ± 0.003 | 0.103 ± 0.011 | – |
| – | Nc1ncnc2c([C@@H]3N[C@H](CSCCO)[C@H](O)C3O)c[nH]c12 (stereo partly shown) [5′-Hydroxyethylthio-ImmA] | – | 22 ± 2 | – | – | – | 0.407 ± 0.016 | – |
| – | COC[C@H]1N[C@@H](c2c[nH]c3c(N)ncnc23)[C@H](O)[C@@H]1O [5′-Methoxy-ImmA, (1S)-1-(9-deazaadenin-9-yl)-1,4-dideoxy-1,4-imino-5-O-methyl-D-ribitol hydrochloride] | – | 70 ± 5 | – | – | – | 10 ± 1 | – |
| – | Nc1ncnc2c([C@@H]3N[C@H](CSc4cccc5ccccc45)[C@H](O)C3O)c[nH]c12 (stereo partly shown) [5′-Napthylthio-ImmA] | – | 52 ± 5 | – | – | – | 0.75 ± 0.033 | – |
| – | CCC[C@H]1N[C@@H](c2c[nH]c3c(N)ncnc23)[C@H](O)[C@@H]1O [5′-deoxy-5′-ethyl-ImmA, (1S)-1-(9-Deazaadenin-9-yl)-1,4,5-trideoxy-5-ethyl-1,4-imino-D-ribitol] | – | – | 0.038 ± 0.005 | 0.121 ± 0.005 | – | – | – |
| – | C[C@H]1N[C@@H](c2c[nH]c3c(N)ncnc23)[C@H](O)[C@@H]1O [5′-deoxy-ImmA, (1S)-1-(9-deazaadenin-9-yl)-1,4,5-trideoxy-1,4-imino-D-ribitol hydrochloride] | – | 220 ± 14 | – | – | – | 13 ± 1 | – |
| – | CSC[C@H]1N[C@@H](c2n[nH]c3c(N)ncnc23)C(O)[C@H]1O (stereo partly drawn) [5′-methylthio-8-aza-ImmA, (1S)-1-(7-Amino-1H-pyrazolo[4,3-d]pyrimidin-3-yl)-1,4-dideoxy-1,4-imino-5-methylthio-D-ribitol] | 0.76 ± 0.14 | 7 ± 1 | – | – | 0.026 ± 0.0003 | 0.055 ± 0.003 | – |
| no inhibition | Nc1ncnc2c([C@@H]3N[C@H](CO)C(O)C3O)c[nH]c12 (stereo partly shown) [Immucillin A, reference compound] | – | – | – | – | – | – | – |
| – | CSC[C@H]1N[C@@H](c2c[nH]c3c(=O)[nH]cnc23)C(O)C1O (stereo partly shown) [methylthio-ImmH, reference compound] | – | – | – | – | – | – | no inhibition |
